Laboratory results from US9884865B2, “Azaspiro[4.5] decane derivatives and use thereof” (Purdue Pharma L.P., priority 2013, dated 2018).

The molecules below were run against T1, human Nav1.7 (Homo sapiens (Human), UniProt Q15858) (assay: FLIPR membrane potential dye assay (alternative fluorescence assay)). Conditions: not given.
Format: cell-based

T1 sequence (Q15858 other isoform, or with tags, fused parts or gaps): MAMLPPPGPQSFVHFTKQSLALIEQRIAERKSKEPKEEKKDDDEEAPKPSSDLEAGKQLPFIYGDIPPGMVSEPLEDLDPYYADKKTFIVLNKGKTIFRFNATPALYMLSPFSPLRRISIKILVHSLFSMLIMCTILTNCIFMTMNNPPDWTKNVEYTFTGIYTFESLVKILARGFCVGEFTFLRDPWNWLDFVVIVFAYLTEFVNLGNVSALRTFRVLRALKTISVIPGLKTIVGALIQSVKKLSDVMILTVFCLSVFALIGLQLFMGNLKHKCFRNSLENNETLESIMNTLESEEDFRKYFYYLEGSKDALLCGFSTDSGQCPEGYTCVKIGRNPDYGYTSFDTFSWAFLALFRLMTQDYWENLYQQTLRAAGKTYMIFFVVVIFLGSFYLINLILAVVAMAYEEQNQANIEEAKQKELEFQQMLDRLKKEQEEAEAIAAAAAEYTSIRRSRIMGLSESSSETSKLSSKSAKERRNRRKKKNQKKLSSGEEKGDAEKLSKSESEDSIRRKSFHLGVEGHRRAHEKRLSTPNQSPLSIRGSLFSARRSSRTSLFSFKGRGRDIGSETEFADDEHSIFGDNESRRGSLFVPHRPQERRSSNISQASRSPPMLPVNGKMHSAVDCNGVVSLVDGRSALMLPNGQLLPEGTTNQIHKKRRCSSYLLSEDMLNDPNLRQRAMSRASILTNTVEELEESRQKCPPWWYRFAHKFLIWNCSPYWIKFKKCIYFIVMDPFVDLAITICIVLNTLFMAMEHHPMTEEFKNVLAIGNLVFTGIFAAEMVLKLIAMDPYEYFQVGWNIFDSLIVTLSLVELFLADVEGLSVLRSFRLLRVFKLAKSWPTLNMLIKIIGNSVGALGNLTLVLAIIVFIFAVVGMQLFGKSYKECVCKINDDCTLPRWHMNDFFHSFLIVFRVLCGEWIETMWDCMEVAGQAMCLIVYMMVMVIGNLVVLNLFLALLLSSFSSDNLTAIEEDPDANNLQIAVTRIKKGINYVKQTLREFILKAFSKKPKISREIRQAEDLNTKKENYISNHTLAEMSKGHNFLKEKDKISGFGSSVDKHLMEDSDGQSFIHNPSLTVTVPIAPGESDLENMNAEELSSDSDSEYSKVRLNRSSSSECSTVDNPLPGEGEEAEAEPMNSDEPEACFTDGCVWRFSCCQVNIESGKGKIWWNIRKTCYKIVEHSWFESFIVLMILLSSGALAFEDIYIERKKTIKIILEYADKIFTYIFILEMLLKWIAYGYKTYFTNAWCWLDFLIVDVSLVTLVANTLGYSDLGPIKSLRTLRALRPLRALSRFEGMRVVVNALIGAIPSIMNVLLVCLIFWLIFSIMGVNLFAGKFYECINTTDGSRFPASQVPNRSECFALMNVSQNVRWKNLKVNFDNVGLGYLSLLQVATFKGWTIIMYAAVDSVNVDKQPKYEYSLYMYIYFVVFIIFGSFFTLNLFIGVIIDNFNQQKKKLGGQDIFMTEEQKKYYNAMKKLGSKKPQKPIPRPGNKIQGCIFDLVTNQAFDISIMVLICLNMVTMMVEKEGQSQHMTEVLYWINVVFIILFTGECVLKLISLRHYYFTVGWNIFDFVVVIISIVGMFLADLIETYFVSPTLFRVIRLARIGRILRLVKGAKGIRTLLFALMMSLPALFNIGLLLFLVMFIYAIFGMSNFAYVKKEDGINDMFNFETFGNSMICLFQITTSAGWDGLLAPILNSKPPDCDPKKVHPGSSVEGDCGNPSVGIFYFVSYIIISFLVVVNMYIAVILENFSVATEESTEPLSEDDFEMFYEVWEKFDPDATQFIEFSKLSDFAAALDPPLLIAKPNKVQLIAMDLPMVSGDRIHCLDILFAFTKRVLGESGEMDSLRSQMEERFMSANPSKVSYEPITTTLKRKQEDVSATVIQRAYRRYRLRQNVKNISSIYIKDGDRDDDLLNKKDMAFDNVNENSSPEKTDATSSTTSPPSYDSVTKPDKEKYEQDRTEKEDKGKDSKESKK

Row | IC50 [nM] | Structure (SMILES)
1 | 1730 ± 649 | O=C1NC(=O)C2(CCN(c3ccc(Oc4ccc(C(F)(F)F)cc4)cn3)CC2)N1 [Compound 17, 8-(5-(4-(trifluoromethyl)phenoxy)pyridin-2-yl)-1,3,8-triazaspiro[4.5]decane-2,4-dione]
2 | > 20000 | O=C1NC(=O)C2(CCN(c3ccc(Oc4ccc(F)cc4)cc3)CC2)N1 [Compound 12, 8-(4-(4-Fluorophenoxy)phenyl)-1,3,8-triazaspiro[4.5]decane-2,4-dione]
3 | 1270 ± 380 | O=C1NC(=O)C2(CCN(c3ccc(Oc4cccc(C(F)(F)F)c4)cc3)CC2)N1 [Compound 14, 8-(4-(3-(Trifluoromethyl)phenoxy)phenyl)-1,3,8-triazaspiro[4.5]decane-2,4-dione]
4 | 1540 ± 223 | O=C1NC(=O)C2(CCN(c3ccc(Oc4cccc(F)c4)cc3)CC2)N1 [Compound 13, 8-(4-(3-Fluorophenoxy)phenyl)-1,3,8-triazaspiro[4.5]decane-2,4-dione]
5 | 4480 ± 1040 | O=C1NC(=O)C2(CCN(c3ccc(Oc4ccc(F)cc4)cn3)CC2)N1 [Compound 16, 8-(5-(4-Fluorophenoxy)pyridin-2-yl)-1,3,8-triazaspiro[4.5]decane-2,4-dione]
6 | > 20000 | O=C1NC(=O)C2(CCN(c3ncccc3Oc3ccc(F)cc3)CC2)N1 [Compound 20, 8-(3-(4-Fluorophenoxy)pyridin-2-yl)-1,3,8-triazaspiro[4.5]decane-2,4-dione]
7 | 1980 ± 309 | O=C1NC(=O)C2(CCN(c3cc(-c4cccc(OC(F)(F)F)c4)ccn3)CC2)N1 [Compound 21, 8-(4-(3-(Trifluoromethoxy)phenyl)pyridin-2-yl)-1,3,8-triazaspiro[4.5]decane-2,4-dione]
8 | 872 ± 117 | O=C1NC(=O)C2(CCN(c3cc(-c4ccc(OC(F)(F)F)cc4)ccn3)CC2)N1 [Compound 15, 8-(4-(4-(trifluoromethoxy)phenyl)pyridin-2-yl)-1,3,8-triazaspiro[4.5]decane-2,4-dione]
9 | > 20000 | O=C1NC(=O)C2(CCN(c3ccc(Oc4ccc(C(F)(F)F)cc4)cc3)CC2)N1 [Compound 19, 8-(4-(4-(trifluoromethyl)phenoxy)phenyl)-1,3,8-triazaspiro[4.5]decane-2,4-dione]
10 | 1440 ± 492 | O=C1NC(=O)C2(CCN(c3ccc(Oc4cccc(C(F)(F)F)c4)cn3)CC2)N1 [Compound 18, 8-(5-(3-(trifluoromethyl)phenoxy)-pyridin-2-yl)-1,3,8-triazaspiro[4.5]decane-2,4-dione]

What follows are molecules tested against T1, human Nav1.7 (assay: FLIPR sodium dye assay (CoroNa Green AM Na+ dye, primary fluorescence assay)). Conditions: recombinant human Nav1.7 in HEK293.
Format: cell-based

Row | IC50 [µM] | Structure (SMILES)
11 | 1.3 ± 0.124 | NC(=O)c1cc(N[C@H]2CCNC2=O)nc(N2CCC3(C=Cc4ccccc43)CC2)n1 [Compound 9, (S)-6-((2-oxopyrrolidin-3-yl)amino)-2-(spiro[indene-1,4′-piperidin]-1′-yl)pyrimidine-4-carboxamide]
12 | 3.92 ± 0.466 | NC(=O)c1cc(N[C@H]2CCNC2=O)nc(N2CCC3(CC2)OCc2ccccc23)n1 [Compound 8, (S)-6-((2-oxopyrrolidin-3-yl)amino)-2-(3H-spiro[isobenzofuran-1,4′-piperidin]-1′-yl)pyrimidine-4-carboxamide]
13 | > 20 | NC(=O)c1cc(N[C@H]2CCNC2=O)nc(N2CCC3(CC2)C(=O)NCN3c2ccccc2)n1 [Compound 11, (S)-2-(4-oxo-1-phenyl-1,3,8-triazaspiro[4.5]decan-8-yl)-6-((2-oxopyrrolidin-3-yl)amino)pyrimidine-4-carboxamide]
14 | 3.86 ± 0.39 | NC(=O)c1cc(N[C@H]2CCNC2=O)nc(N2CCC3(CC2)OC(=O)c2ccccc23)n1 [Compound 10, (S)-2-(3-oxo-3H-spiro [isobenzofuran-1,4′-piperidin]-1′-yl)-6-((2-oxopyrrolidin-3-yl)amino)pyrimidine-4-carboxamide]
